Reference: patent US9795585B2, “Methods of using L-butylphthalide for the prevention and treatment of cerebral ischemia disease” (priority 2004, dated 2017)

How the values were obtained:
[1] = test system: cerebral injury-induced cerebral ischemia in rats; test: Neural symptoms induced by cerebral injury in rats; assay type: in vivo, male Wistar rats; settings: 50 mg/kg oral 5 minutes after cerebral injury; scored after 24 hours; vs vehicle control
Procedure: Experimental Animals: male Wistar rats
Experimental Methods: Cerebral injury in rats was caused by allowing a cone-shaped metal object weighing 220 g to freely fall from a position of 30 cm height and to strike the skull cap behind the left coronal suture. dl-, d-, and l-NBP (50 mg/kg) and the vehicle (control group) were orally administered after 5 minutes, and the behavioral changes were scored after 24 hours.

[2] = test system: focal cerebral ischemia in rats; test: Memory disorder induced by focal cerebral ischemia (shuttle box, artery ligation by method of Tamura); assay type: in vivo, male Wistar rats; settings: 15 and 30 mg/kg oral 15 min after operation; observed after 24 hours; vs vehicle control
Procedure: Experimental Animal: The same as Example 1. Experimental Equipment: Shuttle box. Experimental Methods: • 1. Rats were trained to acquire learning and memory; • 2. Artery ligation: Artery ligation was conducted on rats according to the method of Tamura. After 24 hours, the experiment of learning as in step (1) was repeatedly conducted on rats. • 3. Grouping and administration: the rats were divided into 9 groups, which were normal group, pseudo-operation group, ischemia control group, and groups of dl-, d-, and l-NBP (15 and 30 mg/kg). The rats were orally administered at 15 min after the operation, and the changes of latency of active and passive avoidance response were observed after 24 hours.

[3] = test system: cerebral edema induced by cerebral artery ligation in rats; test: Cerebral edema induced by ligation of right middle cerebral artery; assay type: in vivo, male Wistar rats; settings: 40 and 80 mg/kg oral 15 minutes after ligation; sacrificed after 24 hours
Procedure: Experimental Animals: the same as Example 1. Experimental Equipments: Oxygen analyzer. Experimental Methods: Cerebral edema was induced by the ligation of right middle cerebral artery of rats. After 15 minutes, dl-, d-, and l-NBP (40 and 80 mg/kg) were orally administered. The rats were sacrificed after 24 hours. The forebrain was removed, and the cerebral hemispheres on the left and right side were weighed. Dry weight was obtained by baking for 24 hours under 100° C. The weight of water in the brain tissue was thus calculated by subtracting of dry weight from wet weight. Then, the tissues was nitrified for 4 hours, and pH was adjusted by using HCl. Next, the ion selective electrode was connected onto the oxygen analyzer, and the concentrations of Na^+ and K^+ in the brain tissue were measured.

[4] = test system: cerebral apoplexy in spontaneous hypertension rats; test: Cerebral apoplexy in salt-loaded spontaneous hypertensive rats; assay type: in vivo; settings: 25 and 50 mg/kg/d oral
Procedure: Experimental Animals: spontaneous hypertensive rats of 6 weeks old. Experimental Methods: Spontaneous hypertensive rats of 6 weeks old were divided into 8 groups with 10 rats per group. 0.8 to 0.9 g per day of common salt was administered starting from week 6. […] The scores of neurological deficit and the time of death were recorded.

[5] = test system: ischemic brain of decapitated mice; test: Ischemic cerebral metabolism of energy induced by decapitation of mice; assay type: in vivo, KunMing mice; settings: NBP 50 and 100 mg/kg oral, sodium Phenobarbital 225 mg/kg ip.; decapitated 30 minutes after administration; 15 seconds ischemia; vs control group
Procedure: Experimental Animals: KunMing mice.
Test drug: injectable L-butylphthalide was formulated into an emulsion with Tween-80.
Experimental Methods: KunMing mice of 10 to 22 g were divided into 8 groups with 10 mice per group. dl-, d-, and l-NBP (50 and 100 mg/kg/d), sodium Phenobarbital (225 mg/kg ip.) and the vehicle were orally administered. Thirty minutes after administration, the mice were decapitated.
The time between the decapitation and homogenation, which was 15 seconds, was regarded as cerebral ischemic time. Centrifugation and isolation were conducted by the method of Folbergrova, and the contents of lactic acid, ATP and PCr were determined by enzymological method.

[6] = test system: normal rats; assay type: in vivo, Male wistar rats; settings: 15 and 30 mg/kg oral; 30 minutes after administration
Procedure: Experimental Animals: Male wistar rats.
Experimental Equipments: SXP operating microscope, 62TZ-V model high frequency electrotome, solid positioner, Diamond Electro-Tech chemical microsensor 1231, two channel physiological parameter recorder.
Experimental Methods: • (1) dl-, d-, and l-NBP (15 and 30 mg/kg) and the vehicle were orally administered to the normal rats, and the changes of cerebral blood flow at different time after the administration were measured. • (2) ligation of cerebral artery was conducted on rats according to the method of Tamura. Oral administration was performed at 10 min after the operation. The rats were divided into 9 groups, which were normal group, pseudo-operation group, vehicle control group, and groups of dl-, d-, and l-NBP (15 and 30 mg/kg).

[7] = test system: permanent cerebral ischemic rats; test: Behavioral disorder and cerebral infarct area in permanent cerebral ischemic rats (FeCl3 on middle cerebral artery); assay type: in vivo, Wistar rats
Procedure: Experimental Animal: The same as Example 1. Experimental Equipments: COOLPIX955 digital camera, 722 grating spectroscope, XHF-1 high-speed disperser, YKH-II liquid high-speed mixer, WZ-50C2 micro infusion pump. Experimental Methods: Wistar rats were anesthetized by intraperitoneally injecting 12% chloral hydrate in 350 mg/kg, and fixed in lateral decubitus position. The skin at the midpoint on the line from exterior auditory canal to canthus was cut. The muscle was separated layer by layer to expose zygomatic arch and the squamous part of temporal bone. The zygomatic arch was scissored and then placed under an operating microscope. A window of 2 mm diameter was drilled by using a dentistry drill at a position of 2 mm under the anterior joint between zygomatic arch and the squamous part of temporal bone, so as to expose the middle cerebral artery. A little piece of filter paper was applied onto the middle artery, and 10 μl of 50% FeCl3 aqueous solution was dripped onto the filter paper. The filter paper was removed after 30 min, and washed with physiological brine. Two to three drops of penicillin (1.6×10^5 U/mL) were added so as to prevent infection of the cut. Then the cut was sutured layer by layer.

[8] = test system: cerebral ischemia-reperfusion rats; test: Behavioral disorder and cerebral infarct area in cerebral ischemia-reperfusion rats (MCAO by nylon suture, 1.5 h); assay type: in vivo, male Wistar rats
Description: Experimental Animal: The same as Example 1
Experimental Equipments: The same as Example 7
Experimental Methods: The rats were anesthetized, and fixed in lateral decubitus position. Under the operating microscope, a midline neck skin incision was made to expose the left common cartotid artery. The surrounding nerves and fascia from the bifurcation of common carotid artery to the vascular of basis cranii were removed.
The internal carotid artery was then separated and carefully separated free from vagus nerve. Pterygopalatine artery was ligated at the root of the internal carotid artery. A 6# needle for injection containing 3# nylon suture (diameter of 0.285 mm) was punctured into the free end of the external carotid artery, advancing the nylon suture into the blood vascular. The needle was carefully withdrawn, and the nylon suture was guided into the internal carotid artery from the distal end of the external carotid artery up till to Willis ring, so as to effectively block the middle cerebral artery.
Depending on the body weight, the distance from the inserted nylon suture to the bifurcation of common carotid artery was 18 to 20 mm. The free end of the external carotid artery and the nylon suture therein were ligated together, in order to prevent bleeding. The muscle and the skin were then sutured layer by layer, and penicillin was dropped to prevent infection. To effectively block the middle cerebral artery, the tip of the nylon suture was made round by burning with the flame, and coated with 0.1% of poly-L-lysine. The nylon suture was baked in a 60° C. oven for 1 hour.
Due to the ability of poly-L-lysine to binding the cell and the protein to the plastic surface, and thus allow the negative charged nylon suture changing into a positive charged one and attract the anion ionic part of the endothelial cell, the nylon suture was closely bond to the endothelial surface, so as to prevent the leakage of the blood from the surrounding of the suture. Only the internal carotoid artery was separated from the animals of pseudo-operation group.
At 1.5 hours after the initiation of MCAO, the nylon suture within the lumen of the internal carotoid artery was carefully withdrawn, and the internal carotoid artery was allowed to reperfusion. The rats were then placed back into the cage.

[9] = 24 hours after intravenous injection

## CCCC[C@H]1OC(=O)c2ccccc21 [d-NBP, dextro-butylphthalide]
[1]
  neural symptoms (behavioral changes scored): no significant effect
[2]
  times of active avoidance: not observed
[3]
  content of K+ in the brain: no significant effect
  content of Na+ in the brain: no significant effect
  content of water in the brain: no significant effect
[4]
  preventive and therapeutic effect on cerebral apoplexy (overall): not significant
[5]
  content of ATP in the brain: no such significant effect
  content of PCr in the brain: no such significant effect
  content of lactic acid in the brain: no such significant effect
[6]
  cerebral blood flow rate in normal rats: no such effects
[7]; 2.5 mg/kg, tendency of reducing
  cerebral infarct area (effect in words): not significant
[7]; first of three doses, vs model control group
  reduction of cerebral infarct area: 27.2%
[7]; high dose, i.v., 24 hours after administration
  decrease of neurological deficit scores: 28.1%
[7]; i.v., 24 hours after administration
  ED30 (neurological deficit scores): 12.4 mg/kg
[7]; intravenous injection, vs model control group
  neurological deficit scores (effect in words): improvement
[7]; low dose, i.v., 24 hours after administration
  decrease of neurological deficit scores: 17.2%
[7]; moderate dose, i.v., 24 hours after administration
  decrease of neurological deficit scores: 21.9%
[7]; second of three doses, vs model control group
  reduction of cerebral infarct area: 32.7%
[7]; third of three doses, vs model control group
  reduction of cerebral infarct area: 39.9%
[7]; vs model control group
  ED40 (cerebral infarct area): 10.3 mg/kg
[8]; [9]
  neurological deficit scores (effect in words): improvement
  potency on neurological deficit scores compared among l, dl and d-NBP: no significant difference
[8]; intravenous administration, effect increases with dose
  cerebral infarct area (effect in words): significantly reduce

## CCC1(c2ccccc2)C(=O)NC(=O)NC1=O [sodium Phenobarbital]
[5]
  content of ATP in the brain: increased
  content of PCr in the brain: increased
  content of lactic acid in the brain: significantly decreased
